Test results as given in the NIST ThermoML archive (doi:10.1016/j.fluid.2015.06.041).
± gives the expanded uncertainty stated by the source.

How the values were obtained:
[1] = 101.33 kPa, Liquid; for viscosity: Capillary tube (Ostwald / Ubbelohde) method; for mass density: Vibrating tube method
[2] = xn = mol fraction of the nth substance listed; conditions: 101 kPa, Liquid, x1 = 1; for viscosity: Capillary tube (Ostwald / Ubbelohde) method; for speed of sound: Frequency=2 MHz, Linear variable-path acoustic interferometer; for mass density: Vibrating tube method

viscosity ([1]; 298.15 K) [mPa·s]	mass density ([1]; 298.15 K) [kg/m3]	viscosity ([1]; 308.15 K) [mPa·s]	mass density ([1]; 308.15 K) [kg/m3]	viscosity ([1]; 318.15 K) [mPa·s]	mass density ([1]; 318.15 K) [kg/m3]	viscosity ([2]; 298.15 K) [mPa·s]	speed of sound ([2]; 298.15 K) [m/s]	mass density ([2]; 298.15 K) [kg/m3]	viscosity ([2]; 308.15 K) [mPa·s]	mass density ([2]; 308.15 K) [kg/m3]	viscosity ([2]; 318.15 K) [mPa·s]	mass density ([2]; 318.15 K) [kg/m3]	viscosity ([2]; 298.18 K) [mPa·s]	SMILES
0.7804 ± 0.024	1246.37 ± 0.17	0.6744 ± 0.021	1231.21 ± 0.16	0.5719 ± 0.017	1214.55 ± 0.16	–	–	–	–	–	–	–	–	ClCCCl [1,2-dichloroethane]
1.178 ± 0.036	1027.79 ± 0.11	1.009 ± 0.031	1016.78 ± 0.11	0.8896 ± 0.027	1005.24 ± 0.11	–	–	–	–	–	–	–	–	C1COCCO1 [1,4-dioxane]
–	–	–	–	–	–	1.178 ± 0.036	1343.4 ± 1.4	1027.79 ± 0.11	1.009 ± 0.031	1016.78 ± 0.11	0.8896 ± 0.027	1005.24 ± 0.11	–	C1COCCO1 [1,4-dioxane] + ClCCCl
–	–	–	–	–	–	–	1343.4 ± 1.4	1027.79 ± 0.11	1.009 ± 0.031	1016.78 ± 0.11	0.8896 ± 0.027	1005.24 ± 0.11	1.178 ± 0.036	C1COCCO1 [1,4-dioxane] + NCCN
–	–	–	–	–	–	1.178 ± 0.036	1343.4 ± 1.4	1027.79 ± 0.11	1.009 ± 0.031	1016.78 ± 0.11	0.8896 ± 0.027	1005.24 ± 0.11	–	C1COCCO1 [1,4-dioxane] + NCCO
18.95 ± 0.58	1011.79 ± 0.24	11.96 ± 0.37	1004.68 ± 0.23	7.913 ± 0.24	998.15 ± 0.23	–	–	–	–	–	–	–	–	NCCO [2-aminoethan-1-ol]
1.276 ± 0.039	894.79 ± 0.23	1.107 ± 0.034	885.63 ± 0.24	0.9445 ± 0.029	867.62 ± 0.24	–	–	–	–	–	–	–	–	NCCN [ethane-1,2-diamine]
